From US11566007B2, “Ras inhibitors” (Revolution Medicines, Inc., priority 2019, dated 2023)
Where two headings read alike, the source gives them in different places.

How the values were obtained:
[1] = biological target: KRAS G12S (Homo sapiens (Human), UniProt P01116+P62937, G12S); assay: Ras-Raf (BRAF RBD) disruption / FRET / MOA assay, KRAS G12S; assay type: biochemical
Procedure, shortened: (§1)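 Compound-driven ternary complex of nucleotide-loaded Ras with cyclophilin A, disrupting BRAF RBD binding. 10-point 3-fold dilution from 30 μM final, 3 h at 25° C, then anti-His Eu-W1024 (10 nM) and anti-GST allophycocyanin (50 nM) for 1.5 h. IC50 from TR-FRET ratio decrease versus DMSO.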

[2] = biological target: KRAS G12D (Homo sapiens (Human), UniProt P01116+P62937, G12D); assay: Ras-Raf (BRAF RBD) disruption / FRET / MOA assay, KRAS G12D; assay type: biochemical
Procedure, shortened: as §1

[3] = biological target: KRAS G12V (Homo sapiens (Human), UniProt P01116+P62937, G12V); assay: Ras-Raf (BRAF RBD) disruption / FRET / MOA assay, KRAS G12V; assay type: biochemical; conditions: read-out: IC50* KRAS G12V FRET data
Description: (§2) The purpose of this biochemical assay is to measure the ability of test compounds to facilitate ternary complex formation between a nucleotide-loaded Ras isoform and cyclophilin A; the resulting ternary complex disrupts binding to a BRAF^RBD construct, inhibiting Ras signaling through a RAF effector.
(§3) Compound is present in plate wells as a 10-point 3-fold dilution series starting at a final concentration of 30 μM. After incubation at 25° C. for 3 hours, a mixture of Anti-His Eu-W1024 and anti-GST allophycocyanin is then added to assay sample wells at final concentrations of 10 nM and 50 nM, respectively, and the reaction incubated for an additional 1.5 hours. […] Compounds that facilitate disruption of a Ras:RAF complex are identified as those eliciting a decrease in the TR-FRET ratio relative to DMSO control wells.
(§4) This protocol may also be executed substituting other Ras proteins or nucleotides.
(§5) The purpose of this biochemical assay was to measure the ability of test compounds to facilitate ternary complex formation between a nucleotide-loaded K-Ras isoform and Cyclophilin A; the resulting ternary complex disrupts binding to a BRAF^RBD construct, inhibiting K-Ras signaling through a RAF effector. Data is reported as IC50 values.
as §3, with “Compound was” for “Compound is”, “allophycocyanin was” for “allophycocyanin is”, “a K-Ras:RAF” for “a Ras:RAF”, “complex were” for “complex are”

[4] = test system: NCI-H358 cells (K-Ras G12C); assay: Potency assay: pERK in NCI-H358 cells; assay type: cell-based, human
Procedure, shortened: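 Compounds are dosed as ten 3-fold dilutions from a 10 mM DMSO stock, in duplicate, and left on cells for 4 h at 37 °C, 5% CO2. Phospho-ERK1/2 is then quantified by AlphaLISA SureFire Ultra or In-Cell Western, and IC50 is derived from a 4-parameter sigmoid against log concentration.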

[5] = test system: NCI-H358 (K-Ras G12C); assay: CellTiter-Glo cell viability assay, NCI-H358; assay type: cell-based, human; conditions: NCI-H358, 5-day treatment, class symbols, read-out: Additional H358 Cell Viability assay data (K-Ras G12C, IC50)
Procedure, shortened: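 Luminescent viability readout on day 5 after direct compound addition to plated cells; plates sat ~30 min at room temperature before reading. Values expressed as percent of mean DMSO signal, curves fit with a four-parameter logistic model.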

[6] = biological target: K-Ras G13C (Homo sapiens (Human), UniProt P01116+P62937, G13C); assay: Ras-Raf (BRAF RBD) disruption / FRET / MOA assay, KRAS G13C; assay type: biochemical; conditions: KRAS G13C; Ras-Raf disruption/FRET/MOA assay; read-out: IC50* KRAS G13C FRET data
Description: as §2, §3, §4, §5
as §3, with “Compound was” for “Compound is”, “allophycocyanin was” for “allophycocyanin is”, “a K-Ras:RAF” for “a Ras:RAF”, “complex were” for “complex are”

[7] = biological target: KRAS WT (Homo sapiens (Human), UniProt P01116+P62937); assay: Ras-Raf (BRAF RBD) disruption / FRET / MOA assay, KRAS WT; assay type: biochemical; conditions: read-out: IC50* KRAS WT FRET data
Description: as §2, §3, §4, §5
as §3, with “Compound was” for “Compound is”, “allophycocyanin was” for “allophycocyanin is”, “a K-Ras:RAF” for “a Ras:RAF”, “complex were” for “complex are”

[8] = biological target: K-Ras G12C (Homo sapiens (Human), UniProt P01116+P62937, G12C); assay: Ras-Raf (BRAF RBD) disruption / FRET / MOA assay, KRAS G12C; assay type: biochemical; conditions: KRAS G12C; Ras-Raf disruption/FRET/MOA assay; read-out: IC50* KRAS G12C FRET data
Description: as §2, §3, §4, §5
as §3, with “Compound was” for “Compound is”, “allophycocyanin was” for “allophycocyanin is”, “a K-Ras:RAF” for “a Ras:RAF”, “complex were” for “complex are”

[9] = Ras-Raf disruption/FRET/MOA assay; class symbols; read-out: KRAS G12S FRET data IC50
[10] = Ras-Raf disruption/FRET/MOA assay; class symbols; read-out: KRAS G12D FRET data IC50
[11] = Homo sapiens, NCI-H358, H358 KRAS G12C, read-out: pERK EC50

Chain of KRAS G12V (P01116-2 other isoform, or with tags, fused parts or gaps G12V): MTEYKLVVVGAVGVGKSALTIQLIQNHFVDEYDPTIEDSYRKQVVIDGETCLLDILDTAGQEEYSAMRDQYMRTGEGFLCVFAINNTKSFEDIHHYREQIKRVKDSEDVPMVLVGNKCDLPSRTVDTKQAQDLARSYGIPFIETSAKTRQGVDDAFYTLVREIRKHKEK
Chain of KRAS G12V (P62937 whole entry, canonical isoform): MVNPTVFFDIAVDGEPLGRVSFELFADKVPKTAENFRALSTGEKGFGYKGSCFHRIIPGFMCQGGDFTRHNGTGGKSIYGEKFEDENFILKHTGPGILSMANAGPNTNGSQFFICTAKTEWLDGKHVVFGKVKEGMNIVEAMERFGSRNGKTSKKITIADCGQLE
Chain of KRAS G12S (P01116-2 other isoform, or with tags, fused parts or gaps G12S): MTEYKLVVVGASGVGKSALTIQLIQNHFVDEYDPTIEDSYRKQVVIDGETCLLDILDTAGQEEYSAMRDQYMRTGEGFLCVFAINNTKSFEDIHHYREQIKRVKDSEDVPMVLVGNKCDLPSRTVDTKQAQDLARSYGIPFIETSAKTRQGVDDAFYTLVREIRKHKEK
Chain of KRAS G12S (P62937 whole entry): as the sequence (P62937 whole entry, canonical isoform) above
Chain of KRAS G12D (P01116-2 other isoform, or with tags, fused parts or gaps G12D): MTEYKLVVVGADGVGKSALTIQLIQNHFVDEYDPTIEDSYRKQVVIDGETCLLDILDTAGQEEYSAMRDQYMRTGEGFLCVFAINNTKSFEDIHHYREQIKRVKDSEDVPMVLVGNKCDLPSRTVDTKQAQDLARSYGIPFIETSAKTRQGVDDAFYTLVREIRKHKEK
Chain of KRAS G12D (P62937 whole entry): as the sequence (P62937 whole entry, canonical isoform) above
Chain of K-Ras G13C (P01116-2 other isoform, or with tags, fused parts or gaps G13C): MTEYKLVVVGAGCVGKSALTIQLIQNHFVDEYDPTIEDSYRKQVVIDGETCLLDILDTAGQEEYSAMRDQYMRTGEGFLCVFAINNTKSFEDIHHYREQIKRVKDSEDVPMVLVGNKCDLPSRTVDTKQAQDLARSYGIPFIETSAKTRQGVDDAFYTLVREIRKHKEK
Chain of K-Ras G13C (P62937 whole entry): as the sequence (P62937 whole entry, canonical isoform) above
Chain of K-Ras G12C (P01116-2 other isoform, or with tags, fused parts or gaps G12C): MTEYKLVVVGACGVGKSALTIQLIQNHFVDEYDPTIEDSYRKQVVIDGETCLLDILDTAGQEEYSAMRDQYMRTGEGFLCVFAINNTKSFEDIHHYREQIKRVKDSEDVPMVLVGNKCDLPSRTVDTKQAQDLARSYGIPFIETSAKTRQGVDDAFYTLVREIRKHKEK
Chain of K-Ras G12C (P62937 whole entry): as the sequence (P62937 whole entry, canonical isoform) above
Chain of KRAS WT (P01116-2 other isoform, or with tags, fused parts or gaps): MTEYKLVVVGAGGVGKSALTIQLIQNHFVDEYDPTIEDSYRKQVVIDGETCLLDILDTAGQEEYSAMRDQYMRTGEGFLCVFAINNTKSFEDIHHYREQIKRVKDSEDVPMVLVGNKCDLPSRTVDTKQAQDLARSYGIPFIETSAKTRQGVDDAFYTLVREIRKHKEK
Chain of KRAS WT (P62937 whole entry): as the sequence (P62937 whole entry, canonical isoform) above

EC50 [4, 11]	IC50 ([5]; Homo sapiens, NCI-H358, 120 h)	Compound	IC50 [3]	IC50 [1, 9]	IC50 [2, 10]	also measured
–	–	C=CC(=O)N1CCN(C(=O)N(C)[C@H](C(=O)N[C@H]2Cc3nc(cs3)-c3ccc4c(c3)c(c(-c3cccnc3[C@H](C)OC)n4CC(F)(F)F)CC(C)(C)COC(=O)[C@@H]3CCCN(N3)C2=O)C(C)C)CC1 (atropisomer, axis not shown) [Example A464]	0.01 to 0.1 µM	–	–	IC50 ([1]; read-out: KRAS G12S FRET data IC50; Ras-Raf disruption/FRET/MOA assay; class symbols): 0.01 to 0.1 µM; IC50 ([2]; read-out: KRAS G12D FRET data IC50; Ras-Raf disruption/FRET/MOA assay; class symbols): 0.01 to 0.1 µM; EC50 ([4]; Homo sapiens, NCI-H358, read-out: pERK EC50): < 5 µM
–	–	C=CC(=O)N1CCC(F)(C(=O)N(C)[C@H](C(=O)N[C@H]2Cc3cccc(c3)-c3ccc4c(c3)c(c(-c3cccnc3[C@H](C)OC)n4CC)CC(C)(C)COC(=O)[C@@H]3CCCN(N3)C2=O)C(C)C)CC1 (atropisomer, axis not shown) [Example A519]	–	0.1 to 1 µM	1 to 10 µM	EC50 ([4]; H358 KRAS G12C, read-out: pERK EC50): < 5 µM; IC50 [5]: < 0.01 µM
–	–	CCn1c(-c2cccnc2COC)c2c3cc(ccc31)-c1cc(O)cc(c1)C[C@H](NC(=O)[C@H](C(C)C)N(C)C(=O)c1ccc(NC(=O)/C=C/CN(C)C)cn1)C(=O)N1CCC[C@H](N1)C(=O)OCC(C)(C)C2 [Example A067]	1 to 10 µM	1 to 10 µM	1 to 10 µM	IC50 [6]: 0.01 to 0.1 µM; IC50 [7]: 1 to 10 µM; IC50 [8]: 0.01 to 0.1 µM
–	–	CCn1c(-c2cccnc2COC)c2c3cc(ccc31)-c1cc(O)cc(c1)C[C@H](NC(=O)[C@H](C(C)C)N(C)C(=O)C1CN(C(=O)/C=C/CN(C)C)C1)C(=O)N1CCC[C@H](N1)C(=O)OCC(C)(C)C2 [Example A071]	1 to 10 µM	1 to 10 µM	1 to 10 µM	IC50 [6]: 0.01 to 0.1 µM; IC50 [7]: 1 to 10 µM; IC50 [8]: 0.01 to 0.1 µM
< 5 µM	0.01 to 0.1 µM	CCn1c(-c2cccnc2COC)c2c3cc(ccc31)-c1cc(O)cc(c1)C[C@H](NC(=O)[C@H](C(C)C)N(C)C(=O)[C@H]1CCN(C(=O)C#CCN3CCOCC3)C1)C(=O)N1CCC[C@H](N1)C(=O)OCC(C)(C)C2 [Example A95, (2S)-N-[(8S,14S)-22-ethyl-4-hydroxy-21-[2-(methoxymethyl)pyridin-3-yl]-18,18-dimethyl-9,15-dioxo-16-oxa-10,22,28-triazapentacyclo[18.5.2.1^2,^6.1^10,^14.0^23,^27]nonacosa-1(26),2,4,6(29),20,23(27),24-heptaen-8-yl]-3-methyl-2-{N-methyl-1-[(3S)-1-[4-(morpholin-4-yl)but-2-ynoyl]pyrrolidin-3-yl]formamido}butanamide]	–	–	–	–
< 5 µM	< 0.01 µM	CCn1c(-c2cccnc2COC)c2c3cc(ccc31)-c1cc(O)cc(c1)C[C@H](NC(=O)[C@H](C(C)C)N(C)C(=O)[C@H]1CCN(C(=O)C#CCN(C)C)C1)C(=O)N1CCC[C@H](N1)C(=O)OCC(C)(C)C2 [Example A96]	–	–	–	–
< 5 µM	0.01 to 0.1 µM	CCn1c(-c2cccnc2COC)c2c3cc(ccc31)-c1cc(O)cc(c1)C[C@H](NC(=O)[C@H](C(C)C)N(C)C(=O)C1CN(C(=O)C#CCN(C)C)C1)C(=O)N1CCC[C@H](N1)C(=O)OCC(C)(C)C2 [Example A97]	–	–	–	–
< 5 µM	0.01 to 0.1 µM	C=CC(=O)N1CC[C@H](C(=O)N(C)[C@H](C(=O)N[C@H]2Cc3cc(O)cc(c3)-c3ccc4c(c3)c(c(-c3ccc(C5CCN(C)CC5)nc3)n4CC)CC(C)(C)COC(=O)[C@@H]3CCCN(N3)C2=O)C(C)C)C1 [Example A98]	–	–	–	–
< 5 µM	0.01 to 0.1 µM	C=CC(=O)N1CC[C@H](C(=O)N(C)[C@H](C(=O)N[C@H]2Cc3cc(O)cc(c3)-c3ccc4c(c3)c(c(-c3cnn(C)c3)n4CC)CC(C)(C)COC(=O)[C@@H]3CCCN(N3)C2=O)C(C)C)C1 [Example A99]	–	–	–	–
